From ChEMBL document CHEMBL1201862, “PubChem BioAssay data set” (2004)
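1) Cells in 96-well plates. 2) Compound, 48 h, 5 concentrations. 3) Linear interpolation between surrounding doses. 4) Unreached endpoint = highest concentration. GI50 = concentration required for 50% inhibition of growth.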 Calls of active or inactive are those of the source. Cut-off read from the data, not from the text of the source: active = GI50 up to about 1.1 µM and inactive = higher.

Key:
Experiment in all cases: DTP human tumour cell line panel, 48 h
[1] = test system: A498
[2] = test system: A549
[3] = test system: HCC 2998
[4] = test system: KM12
[5] = test system: LOX IMVI
[6] = test system: NCI-H226
[7] = test system: OVCAR-5
[8] = test system: OVCAR-8
[9] = test system: RXF 393
[10] = test system: SK-MEL-28
[11] = test system: SK-MEL-2
[12] = test system: SK-MEL-5
[13] = test system: SNB-19
[14] = test system: TK-10
[15] = test system: COLO 205
[16] = test system: SR

Measured: GI50

CCCCC(C(=O)C(=O)Nc1ccc(C)cc1C)C(=O)C(C)C (configuration not stated)
inactive: [1] > 100 µM | [2] > 100 µM | [3] > 100 µM | [4] > 100 µM | [5] > 100 µM | [6] > 100 µM | [7] > 100 µM | [8] > 100 µM | [9] > 100 µM | [10] > 100 µM | [11] > 100 µM | [12] > 100 µM | [13] > 100 µM | [14] > 100 µM

COc1ccc(OC)c(/C=C/C(=O)C(C)(C)C)c1
inactive: [1] 28.1 µM | [2] 29.4 µM | [15] 19 µM | [3] 23.2 µM | [4] 21.1 µM | [5] 21.1 µM | [6] 17.4 µM | [7] > 10 µM | [8] 15.7 µM | [9] 18.5 µM | [10] 17.2 µM | [11] > 10 µM | [12] 15 µM | [13] 17.2 µM | [14] 26.4 µM

Cc1ccccc1C1SCc2nc3ccccc3n21 (configuration not stated)
inactive: [2] > 100 µM | [15] > 100 µM | [3] > 100 µM | [4] > 100 µM | [6] 60.3 µM | [7] 3.38 µM | [8] > 100 µM | [9] > 100 µM | [10] 23.6 µM | [11] > 100 µM | [12] 5.19 µM | [13] > 100 µM | [14] > 100 µM

C1=CC2SSSC2C1 (configuration not stated)
inactive: [2] > 100 µM | [15] > 100 µM | [3] > 100 µM | [4] > 100 µM | [5] > 100 µM | [6] > 100 µM | [7] > 100 µM | [8] > 100 µM | [9] > 100 µM | [10] > 100 µM | [11] > 100 µM | [12] > 100 µM | [13] > 100 µM | [16] > 100 µM | [14] > 100 µM

CC(C)(C)OC(=O)N[C@H]1CC(O)c2ccccc2N(CC(=O)O)C1=O (some centres not stated)
inactive: [2] > 100 µM | [15] > 100 µM | [3] > 100 µM | [4] > 100 µM | [5] > 100 µM | [6] > 100 µM | [8] > 100 µM | [9] > 100 µM | [10] > 100 µM | [11] > 100 µM | [12] > 100 µM | [13] > 100 µM | [16] > 100 µM | [14] > 100 µM

NN/C(Cc1ccccc1)=N/NC(N)=S
inactive: [1] > 100 µM | [2] > 100 µM | [15] > 100 µM | [3] > 100 µM | [4] 96.4 µM | [5] 82.6 µM | [6] > 100 µM | [7] > 100 µM | [8] > 100 µM | [9] > 100 µM | [10] > 100 µM | [11] > 100 µM | [14] > 100 µM

Cc1cc2c(C)n(Cc3ccc(Cl)cc3Cl)nc2c(C(=O)O)c1C
inactive: [2] > 100 µM | [15] > 100 µM | [3] > 100 µM | [5] > 100 µM | [6] > 100 µM | [7] > 100 µM | [8] > 100 µM | [9] > 100 µM | [10] > 100 µM | [11] > 100 µM | [13] > 100 µM | [14] > 100 µM

Cc1nn(-c2ccccc2)c(S)c1C(=O)c1ccccc1
inactive: [1] 21 µM | [2] 32.2 µM | [15] 89.3 µM | [3] 29.8 µM | [4] 33 µM | [5] 53.6 µM | [7] 62.2 µM | [8] 14.9 µM | [9] 3.41 µM | [10] 33.5 µM | [11] > 100 µM | [12] 28.8 µM | [13] 41 µM | [14] 31.9 µM

S=C(N/N=C/c1ccccc1)NC1CC(c2ccccc2)Oc2ccccc21 (configuration not stated)
inactive: [2] 26.8 µM | [15] > 100 µM | [3] > 100 µM | [4] > 100 µM | [5] > 100 µM | [6] > 100 µM | [7] > 100 µM | [8] 48 µM | [10] 70 µM | [11] > 100 µM | [12] 11.1 µM | [13] 36.5 µM | [16] > 100 µM | [14] > 10 µM

CCOC(=O)/C(O)=C(/C(=O)OC)c1ccc(Cl)cc1
inactive: [1] > 100 µM | [2] > 100 µM | [15] > 100 µM | [3] > 100 µM | [4] > 100 µM | [5] > 100 µM | [7] > 100 µM | [8] > 100 µM | [10] > 100 µM | [11] > 100 µM | [12] > 100 µM | [13] > 100 µM | [14] > 100 µM

Cc1ccc(Cc2c(=O)[nH]nc3ccccc23)cc1
inactive: [1] > 100 µM | [2] > 100 µM | [15] > 100 µM | [3] > 100 µM | [4] > 100 µM | [5] > 100 µM | [6] > 100 µM | [7] > 100 µM | [8] > 100 µM | [10] > 100 µM | [11] > 100 µM | [12] > 100 µM | [13] > 100 µM | [14] > 100 µM

CC12Oc3ccc4ccccc4c3CC1Cc1c(ccc3ccccc13)O2 (configuration not stated)
inactive: [2] > 100 µM | [15] > 100 µM | [3] > 100 µM | [4] > 100 µM | [5] 56.2 µM | [6] 23 µM | [7] > 100 µM | [8] 49.7 µM | [9] 27.2 µM | [10] > 100 µM | [11] 48 µM | [13] 45.5 µM | [14] 46.2 µM

O=C(N/C(=C\c1ccc([N+](=O)[O-])cc1)c1nc2ccccc2s1)c1ccccc1
inactive: [1] 31.3 µM | [2] 30.7 µM | [15] 58.3 µM | [3] 57.4 µM | [4] 22.5 µM | [5] 20 µM | [7] 54.7 µM | [8] 24.6 µM | [9] 28.6 µM | [10] 39.5 µM | [11] 23.7 µM | [12] 25.7 µM | [13] 32.8 µM | [14] 22.6 µM

O=C1CCC2(c3ccc(F)cc3)Nc3ccccc3N12 (configuration not stated)
inactive: [1] > 100 µM | [2] > 100 µM | [15] > 100 µM | [3] > 100 µM | [4] > 100 µM | [5] > 100 µM | [6] > 100 µM | [7] > 100 µM | [8] > 100 µM | [9] > 100 µM | [10] > 100 µM | [11] > 100 µM | [12] > 100 µM | [14] > 100 µM
